Measured values reported in US20150011751A1, “NOVEL TRIAZINE DERIVATIVE” (CARNA BIOSCIENCES, INC., priority 2012, published 2015).

The compounds below were run against Dephosphorylated BTK (Homo sapiens, UniProt Q06187) (assay: Test of activity inhibition against dephosphorylated BTK (mobility shift assay)).
Chain of Dephosphorylated BTK (Q06187 whole entry): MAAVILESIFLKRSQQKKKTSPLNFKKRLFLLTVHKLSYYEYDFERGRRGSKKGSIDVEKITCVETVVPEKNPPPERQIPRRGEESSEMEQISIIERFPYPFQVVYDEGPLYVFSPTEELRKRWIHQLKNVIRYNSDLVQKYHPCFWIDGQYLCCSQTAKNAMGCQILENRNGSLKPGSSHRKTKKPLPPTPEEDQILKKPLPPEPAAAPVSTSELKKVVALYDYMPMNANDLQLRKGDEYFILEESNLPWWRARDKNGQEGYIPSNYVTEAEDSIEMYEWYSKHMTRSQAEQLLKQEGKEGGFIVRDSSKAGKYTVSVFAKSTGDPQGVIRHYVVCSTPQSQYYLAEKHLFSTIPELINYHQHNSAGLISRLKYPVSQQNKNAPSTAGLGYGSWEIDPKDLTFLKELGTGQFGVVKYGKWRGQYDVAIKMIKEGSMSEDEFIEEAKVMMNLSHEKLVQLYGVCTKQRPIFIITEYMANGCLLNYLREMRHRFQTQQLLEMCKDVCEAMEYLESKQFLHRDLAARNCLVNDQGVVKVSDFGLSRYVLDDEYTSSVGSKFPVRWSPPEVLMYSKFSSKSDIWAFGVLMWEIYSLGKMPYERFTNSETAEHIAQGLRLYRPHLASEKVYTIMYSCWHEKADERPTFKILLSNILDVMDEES

CC(C)(C)c1ccc(C(=O)Nc2cccc(-c3nc(N)nc(Nc4ccc(OCCOCCO)cc4)n3)c2CO)cc1 [Example 151, N-{3-[4-Amino-6-({4-[2-(2-hydroxyethoxy)eth-oxy]phenyl}amino)-1,3,5-triazin-2-yl]-2-(hy-droxymethyl)phenyl}-4-(tert-butyl)benzamide] was tested. Which IC50 did it give?
Its IC50 is 1.3 nM.

How did the IC50 turn out when COCCN(CCOC)Cc1ccc(Nc2nc(N)nc(-c3cccc(NC(=O)c4cc5c(s4)CCCC5)c3CO)n2)cc1 [Example 129, N-(3-{4-Amino-6-[(4-{[bis (2-methoxyethyl)a-mino]methyl}phenyl)ami-no]-1,3,5-triazin-2-yl}-2-(hydroxymethyl)phenyl)-4,5,6,7-tetra-hydrobenzo[b]thiophene-2-carboxamide] was run?
The IC50 was 0.6 nM.

CC(C)(C)c1ccc(C(=O)Nc2cccc(-c3nc(N)nc(Nc4ccc(CN5CCC(O)CC5)cc4)n3)c2CO)cc1 [Example 94, N-{3-[4-Amino-6-({4-[(4-hydroxypiperidin-1-yl)methyl]phenyl}ami-no)-1,3,5-triazin-2-yl]-2-(hydroxymethyl)phe-nyl}-4-(tert-butyl) benzamide] was tested. Which IC50 did it give?
Its IC50 is 0.4 nM.

CN1CCN(c2ccc(Nc3nc(N)nc(-c4cccc(NC(=O)c5ccc(C(C)(C)C)cc5)c4CO)n3)cc2)CC1 [Example 146, N-[3-(4-Amino-6-{[4-(4-methylpiperazin-1-yl)phenyl]amino}-1,3,5-triazin-2-yl)-2-(hy-droxymethyl)phenyl]-4-(tert-butyl)benzamide] was tested. Which IC50 did it give?
The IC50 was 0.4 nM.

With CN1CCN(C)C(c2ccc(Nc3nc(N)nc(-c4cccc(NC(=O)c5cc6c(s5)CCCC6)c4CO)n3)cc2)C1=O (stereo not shown) [Example 130, N-[3-(4-Amino-6-{[4-(1,4-dimethyl-3-oxopipe-razin-2-yl)phenyl]ami-no}-1,3,5-triazin-2-yl)-2-(hydroxymethyl)phenyl]-4,5,6,7-tetra-hydrobenzo[b]thiophene-2-carboxamide] as the compound, how does the IC50 read?
Its IC50 is 0.5 nM.

For CC(C)(C)c1ccc(C(=O)Nc2cccc(-c3nc(N)nc(Nc4ccc5c(c4)OCC(=O)N5)n3)c2CO)cc1 [Example 154, N-(3-{4-Amino-6-[(3-oxo-3,4-dihydro-2H-ben-zo[b][1,4]oxazin-7-yl)amino]-1,3,5-triazin-2-yl}-2-(hydroxymeth-yl)benzyl)-4-(tert-bu-tyl)benzamide], which IC50 is on record?
The IC50 was 0.9 nM.

How did the IC50 turn out when Nc1nc(Nc2ccc(N3CCNCC3)cc2)nc(-c2cccc(N3CCc4cc(C5CC5)cc(F)c4C3=O)c2CO)n1 [Example 191, 2-[3-(4-Amino-6-{[4-(pipe-razin-1-yl)phenyl]amino}-1,3,5-triazin-2-yl)-2-(hydroxymeth-yl)phenyl]-6-cyclopro-pyl-8-fluoro-3,4-dihy-droisoquinolin-1(2H)-one] was run?
The IC50 was 1 nM.

With Cc1c(NC(=O)c2ccc(C(C)(C)C)cc2)cccc1-c1ncnc(Nc2ccc(C(=O)NCCN(C)C)cc2)n1 [Example 17, 4-(tert-Butyl)-N-(3-{4-[(4-{[2-(dimethylami-no)ethyl]carbamoyl}phe-nyl)amino]-1,3,5-tri-azin-2-yl)-2-methyl-phenyl)benzamide] as the compound, how does the IC50 read?
The IC50 was 5.1 nM.

How did the IC50 turn out when CC(C)(F)c1ccc(C(=O)Nc2cccc(-c3nc(N)nc(Nc4ccc(N5CCOCC5)cc4)n3)c2CO)cc1 [Example 209, N-(3-{4-Amino-6-[(4-morpholinophenyl)amino]-1,3,5-triazin-2-yl}-2-(hydroxymethyl)phe-nyl)-4-(2-fluoropropan-2-yl)benzamide] was run?
Its IC50 is 1.4 nM.

CCCn1cc(Nc2nc(N)nc(-c3cccc(N4CCc5cc(C6CC6)cc(F)c5C4=O)c3CO)n2)cn1 [Example 262, 2-(3-{4-Amino-6-[(1-pro-pyl-1H-pyrazol-4-yl)amino]-1,3,5-triazin-2-yl}-2-(hydroxymeth-yl)phenyl)-6-cyclopro-pyl-8-fluoro-3,4-dihy-droisoquinolin-1(2H)-one] was tested. Which IC50 did it give?
The IC50 was 0.8 nM.

For CC(C)(O)c1ccc(C(=O)Nc2cccc(-c3nc(N)nc(Nc4ccc(N5CCOCC5)cc4)n3)c2CO)cc1 [Example 208, N-(3-{4-Amino-6-[(4-morpholinophenyl)amino]-1,3,5-triazin-2-yl}-2-(hydroxymethyl)phe-nyl)-4-(2-hydroxy-propan-2-yl)benzamide], which IC50 is on record?
Its IC50 is 5.9 nM.

Nc1nc(Nc2ccc(N3CCCC(O)C3)cc2)nc(-c2cccc(NC(=O)c3cc4c(s3)CCCC4)c2CO)n1 (stereo not shown) [Example 143, N-[3-(4-Amino-6-{[4-(3-hydroxypiperidin-1-yl)phenyl]amino}-1,3,5-triazin-2-yl)-2-(hy-droxymethyl)phenyl]-4,5,6,7-tetrahydrobenzo [b]thiophene-2-carbox-amide] was tested. Which IC50 did it give?
The IC50 was 0.9 nM.

Nc1nc(Nc2ccn(CC3CC3)c2)nc(-c2cccc(N3CCc4cc(C5CC5)cc(F)c4C3=O)c2CO)n1 [Example 248, 2-[3-(4-Amino-6-{[1-(cyclo-propylmethyl)-1H-pyrrol-3-yl]amino}-1,3,5-triazin-2-yl)-2-(hydroxymethyl)phenyl]-6-cyclopropyl-8-fluoro-3,4-dihydroisoquinolin-1(2H)-one] was tested. Which IC50 did it give?
Its IC50 is 3.2 nM.

For Nc1nc(Nc2ccc(OCCN3CCOCC3)cc2)nc(-c2cccc(NC(=O)c3cc4c(s3)CCCC4)c2CO)n1 [Example 138, N-[3-(4-Amino-6-{[4-(2-morpholinoethoxy)phe-nyl]amino}1,3,5-tri-azin-2-yl)-2-(hydroxy-methyl)phenyl]-4,5,6,7-tetrahydrobenzo[b]thio-phene-2-carboxamide], which IC50 is on record?
The IC50 was 1.7 nM.

Cc1c(NC(=O)c2cc3c(s2)CCCC3)cccc1-c1nc(N)nc(Nc2ccc(C(=O)N3CCOCC3)cc2)n1 [Example 66, N-[3-(4-Amino-6-{[4-(morpho-line-4-carbonyl)phenyl]amino}-1,3,5-triazin-2-yl)-2-methyl-phenyl]-4,5,6,7-tetra-hydrobenzo[b]thiophene-2-carboxamide] was tested. Which IC50 did it give?
Its IC50 is 3.2 nM.

Which IC50 does the source give for CC(C)(C)c1ccc(C(=O)Nc2cccc(-c3nc(N)nc(Nc4ccc(N5CCCC(O)C5)cc4)n3)c2CO)cc1 (stereo not shown) [Example 125, N-[3-(4-Amino-6-{[4-(3-hydroxypiperidin-1-yl)phenyl]amino}-1,3,5-triazin-2-yl)-2-(hy-droxymethyl)phenyl]-4-(tert-butyl)benzamide] here?
The IC50 was 0.8 nM.

For Cc1c(NC(=O)c2ccc(C(C)(C)C)cc2)cccc1-c1ncnc(Nc2ccc(N3CCOCC3)cc2)n1 [Example 24, 4-(tert-Butyl)-N-(2-meth-yl-3-{4-[(4-morpho-linophenyl)amino]-1,3,5-triazin-2-yl}phenyl) benzamide], which IC50 is on record?
Its IC50 is 3.4 nM.

How did the IC50 turn out when Nc1nc(Nc2ccc(N3CCOCC3)nc2)nc(-c2cccc(N3CCc4cc(C5CC5)cc(F)c4C3=O)c2CO)n1 [Example 46, 2-(3-{4-Amino-6-[(6-morpho-linopyridin-3-yl)amino]-1,3,5-triazin-2-yl}-2-(hydroxymeth-yl)phenyl)-6-cyclopro-pyl-8-fluoro-3,4-dihy-droisoquinolin-1(2H)-one] was run?
The IC50 was 5.2 nM.

Which IC50 does the source give for Cc1c(NC(=O)c2ccc(C(C)(C)C)cc2)cccc1-c1nc(N)nc(Nc2ccc(N3CCNCC3)cc2)n1 [Example 88, N-[3-(4-Amino-6-{[4-(piperazin-1-yl)phenyl]amino}-1,3,5-triazin-2-yl)-2-methylphenyl]-4-(tert-butyl)benza-mide] here?
Its IC50 is 1.8 nM.

With COCCN(CCOC)Cc1ccc(Nc2nc(N)nc(-c3cccc(NC(=O)c4ccc(C(C)(C)C)cc4)c3CO)n2)cc1 [Example 105, N-(3-{4-Amino-6-[(4-{[bis (2-methoxyethyl)ami-no]methyl}phenyl)ami-no)-1,3,5-triazin-2-yl]-2-(hydroxymethyl)phenyl}-4-(tert-butyl) benzamide] as the compound, how does the IC50 read?
The IC50 was 0.9 nM.

With Nc1nc(Nc2ccc(N3CCCC3)cc2)nc(-c2cccc(N3CCc4cc(C5CC5)cc(F)c4C3=O)c2CO)n1 [Example 244, 2-[3-(4-Amino-6-{[4-(pyr-rolidin-1-yl)phenyl]amino}-1,3,5-triazin-2-yl)-2-(hydroxymeth-yl)phenyl]-6-cyclopro-pyl-8-fluoro-3,4-dihy-droisoquinolin-1(2H)-one] as the compound, how does the IC50 read?
The IC50 was 4.6 nM.

With CC(C)(C)c1ccc(C(=O)Nc2cccc(-c3nc(N)nc(Nc4cccc(Cn5cccn5)c4)n3)c2CO)cc1 [Example 161, N-{3-[4-({3-[(1H-Pyra-zol-1-yl)methyl]phenyl}amino)-6-amino-1,3,5-triazin-2-yl]-2-(hy-droxymethyl)phenyl}-4-(tert-butyl)benzamide] as the compound, how does the IC50 read?
The IC50 was 1.1 nM.

CN(CCO)c1ccc(Nc2nc(N)nc(-c3cccc(N4CCc5cc(C6CC6)cc(F)c5C4=O)c3CO)n2)cc1 [Example 246, 2-{3-[4-Amino-6-({4-[(2-hydroxyethyl)(meth-yl)amino]phenyl}amino)-1,3,5-triazin-2-yl]-2-(hydroxymethyl)phe-nyl}-6-cyclopropyl-8-fluoro-3,4-dihydroiso-quinolin-1(2H)-one] was tested. Which IC50 did it give?
Its IC50 is 2.7 nM.

For Nc1nc(Nc2ccc(N3CCOCC3)cc2)nc(-c2cccc(NC(=O)c3ccc(C(F)(F)F)cc3)c2CO)n1 [Example 168, N-(3-{4-Amino-6-[(4-morpholinophenyl)amino]-1,3,5-triazin-2-yl}-2-(hydroxymethyl)phe-nyl)-4-(trifluorometh-yl)benzamide], which IC50 is on record?
The IC50 was 17.6 nM.

With CC1(Cn2cc(Nc3nc(N)nc(-c4cccc(N5CCc6cc(C7CC7)cc(F)c6C5=O)c4CO)n3)cn2)COC1 [Example 261, 2-{3-[4-Amino-6-({1-[(3-methyloxetan-3-yl)methyl]-1H-pyrazol-4-yl}amino)-1,3,5-triazin-2-yl]-2-(hydroxymeth-yl)phenyl}-6-cyclopro-pyl-8-fluoro-3,4-di-hydroisoquinolin-1(1H)-one] as the compound, how does the IC50 read?
The IC50 was 1.5 nM.

Which IC50 does the source give for COCCOc1ccc(Nc2nc(N)nc(-c3cccc(NC(=O)c4ccc(C(C)(C)C)cc4)c3CO)n2)cc1OCCOC [Example 90, N-[3-(4-Amino-6-{[3,4-bis(2-methoxyethoxy)phenyl]amino}-1,3,5-tri-azin-2-yl)-2-(hydroxy-methyl)phenyl]-4-(tert-butyl)benzamide] here?
Its IC50 is 0.7 nM.

With Nc1nc(Nc2ccn([C@H]3CCOC3)c2)nc(-c2cccc(N3CCc4cc(C5CC5)cc(F)c4C3=O)c2CO)n1 [Example 249, (S)-2-[3-(4-Amino-6-{[1-(tetrahydrofuran-3-yl)-1H-pyrrol-3-yl]ami-no}-1,3,5-triazin-2-yl)-2-(hydroyxmethyl)phenyl]-6-cyclopropyl-8-fluoro-3,4-dihydro-isoquinolin-1(2H)-one] as the compound, how does the IC50 read?
The IC50 was 1 nM.

Which IC50 does the source give for CC(C)(C)c1ccc(C(=O)Nc2cccc(-c3nc(N)nc(Nc4ccc(N5CCNC(=O)C5)cc4)n3)c2CO)cc1 [Example 114, N-[3-(4-Amino-6-{[4-(3-oxopiperazin-1-yl)phe-nyl]amino}-1,3,5-tri-azin-2-yl)-2-(hydroxy-methyl)phenyl]-4-(tert-butyl)benzamide] here?
The IC50 was 1 nM.
